≈ marks a conversion by molar mass, not a printed value.
Conditions: buffer; pH 7.4; 200.0 µM

| Structure (SMILES) | solubility kinetic [µg/mL] |
| --- | --- |
| COC(=O)Nc1nc2ccc(C(=O)c3cccs3)cc2[nH]1 | 0.3 (≈ 0.996 µM) |
| O=C(CCc1ccc(S(=O)(=O)N2CCOCC2)cc1)OCC(=O)c1ccccc1F | 49.6 (≈ 114 µM) |
| COc1ccc(CCNC(=O)/C=C/c2ccco2)cc1 | 38.9 (≈ 143 µM) |
| Cc1ccc(NC(=O)NCC2CC2(Cl)Cl)cc1 (stereo unspecified) | 9.1 (≈ 33.3 µM) |
| CC(=O)N1c2ccccc2CCc2ccc(N)cc21.Cl | > 43.3 |
| O=C(O)c1cn(CCOc2ccccc2Cl)c2ccccc12 | > 47.4 |
| O=c1oc2cc(Br)ccc2n1Cc1ccccc1 | < 0.7 |
| CCN(C(=O)c1cccs1)C1CCS(=O)(=O)C1 (stereo unspecified) | > 41 |
| COc1ccc(CNCC(O)(c2ccccc2)c2ccccc2)cc1 | > 50 |
| Cn1cnc(S(=O)(=O)Nc2ccc3c(c2)OCCO3)c1 | 30.2 (≈ 102 µM) |
| Cc1c(C(=O)NNC(=O)c2cccnc2)cccc1[N+](=O)[O-] | > 45 |
| COc1cc(/C=C/C(=O)N(C)CC(=O)Nc2ccccc2SC)cc(OC)c1OC | > 64.6 |
| S=C(Nc1ccccc1)N1CCCCCCC1 | > 37.3 |
| CC1CCC2(CC1)SCC(=O)N2c1ccc(F)cc1 (stereo unspecified) | 39.5 (≈ 141 µM) |
| O=C(NCC1CCCO1)c1ccccc1NS(=O)(=O)c1cc([N+](=O)[O-])ccc1Cl (stereo unspecified) | > 66 |
| O=C(O)C1CCN(c2ccc([N+](=O)[O-])cc2[N+](=O)[O-])CC1 | > 44.3 |
| Cc1ccc(S(=O)(=O)N2CCC(C(=O)NCC3CC3)CC2)cc1 | 31.7 (≈ 94.2 µM) |
| CCCCSc1nc(O)cc(=O)n1CC | 33.4 (≈ 146 µM) |
| C/C(CC(=O)Nc1ccccn1)=N\NC(=O)c1cccc(C)c1 | > 46.6 |
| CCN(CC(=O)NCc1cccs1)C(=O)c1cc(Br)ccc1O | > 59.6 |
| COc1cccc(N2C(=O)/C(=C/c3ccc(C)o3)C(=O)NC2=S)c1 | > 51.4 |
| COc1ccc(C2(CNC(=O)c3ccccc3)CCCC2)cc1OC | 8.2 (≈ 24.2 µM) |
| Cc1ccc2c(CN3CCC(C)CC3)cc(=O)oc2c1C | 3.9 (≈ 13.7 µM) |
| CC(NC(=O)/C(C#N)=C/c1ccco1)c1ccccc1 (stereo unspecified) | 38.8 (≈ 146 µM) |
| Cc1cc(C)cc(C(=O)NC(=S)Nc2cccnc2)c1 | 8.4 (≈ 29.4 µM) |

| Structure (SMILES) | solubility kinetic [µg/mL] |
| --- | --- |
| N#CNC(=Nc1ccc(Cl)cc1)Oc1ccccc1 | 1.9 (≈ 6.99 µM) |
| Cc1cc(C)cc(OCC(=O)OCC(=O)NC2CC2)c1 | > 41.6 |
| S=C(c1ccc(-c2ccc(Br)cc2)o1)N1CCCCC1 | < 0.8 |
| CC(O)c1ccc(Oc2cnccn2)cc1 (stereo unspecified) | > 32.4 |
| Cc1nc(N2CCOCC2)[nH]c(=O)c1C | > 31.4 |
| CCC(=O)c1cn(CC(=O)Nc2ccccc2F)c2ccccc12 | 3.2 (≈ 9.87 µM) |
| O=C(Nc1ccc2ccccc2n1)c1ccccc1Br | 4.6 (≈ 14.1 µM) |
| COc1ccc(NS(=O)(=O)c2ccc(O)c([N+](=O)[O-])c2)cc1S(=O)(=O)N1CCCCC1 | > 70.7 |
| O=C(NC1(O)C(=O)c2ccccc2C1=O)c1ccc(C(F)(F)F)cc1 | > 52.4 |
| Cc1ccc2cc(NC(=O)c3ccccc3C)ccc2n1 | 37.4 (≈ 135 µM) |
| Cc1ccc(NC(=O)CNC(=O)COc2ccccc2)nc1 | 14.9 (≈ 49.8 µM) |
| CCOc1ccc2[nH]c3c(N4CCc5ccccc5C4)ncnc3c2c1 | 1.2 (≈ 3.48 µM) |
| COc1ccc2c(c1)c(C(C)=O)c(C)n2CCc1ccccc1 | < 0.7 |
| COc1ccc(NC(=O)COc2ccc(Br)cc2)c(OC)c1 | < 0.8 |
| N/C(=N\O)c1cccc(CS(=O)(=O)c2ccccn2)c1 | 37 (≈ 127 µM) |
| CCn1cnc2cc(NCc3cccs3)ccc21 | > 38.6 |
| Cc1c(C=O)c2ccccc2n1CCOc1ccccc1F | < 0.6 |
| O=C(CN1CCN(c2ccc([N+](=O)[O-])cc2)CC1)c1ccccc1 | 22.5 (≈ 69.2 µM) |
| Oc1ccc(Nc2nc(-c3cccnc3)cs2)cc1 | 0.8 (≈ 2.97 µM) |
| CCOc1nc(CC(C)C)c2c(c1C#N)CC(C)(C)OC2 | 2.4 (≈ 8.32 µM) |
| COc1ccc(NC(=O)c2cc3ccccc3o2)cn1 | 3.8 (≈ 14.2 µM) |
| O=C(NNC(=O)c1cccs1)c1ccc(Cl)nc1 | > 42.3 |
| O=C(COc1ccc(Cl)cc1)NCCN1CCCCC1 | > 44.5 |
| Cc1ccc(C(=O)OCC(=O)NCC2CCCO2)c(C)c1 (stereo unspecified) | > 43.7 |
| Cc1ccc(NC(=S)NC(=O)C2CCCC2)c(Br)c1 | 4.2 (≈ 12.3 µM) |

| Structure (SMILES) | solubility kinetic [µg/mL] |
| --- | --- |
| CC(=O)Nc1ccc(C(=O)Nc2cc(C)on2)cc1 | > 38.9 |
| CCCOc1ccc(C(=O)OCCN2CCCCC2)c(O)c1.Cl | 49.8 |
| Cc1cccc(NC(=O)NC2CCCCCCC2)c1 | 5.2 (≈ 20 µM) |
| CCOCc1[nH]c(=S)[nH]c(=O)c1Cc1ccc(OC(C)C)cc1 | > 50.2 |
| COc1cc(OC)c(C(=O)N2CCCC2)cc1OC | > 39.8 |
| O=C(OCC(=O)N1CCOCC1)c1ccc2ccccc2c1O | 28.2 (≈ 89.4 µM) |
| COc1ccc(CC(=O)NC(C)c2ccc3ccccc3c2)cc1 (stereo unspecified) | 0.7 (≈ 2.19 µM) |
| COc1ccccc1CNC(=O)c1sccc1-c1ccccc1 | 14.4 (≈ 44.5 µM) |
| CC1CCCN(CCC(=O)Nc2ccc(F)c(F)c2)C1 (stereo unspecified) | > 42.3 |
| Cc1ccc(NC(=O)C2CCCCC2C(=O)O)cc1Cl (stereo unspecified) | > 44.4 |
| Cc1cccc(N2CN(S(=O)(=O)c3cccc([N+](=O)[O-])c3)c3nc4ccccc4nc32)c1 | 0.7 (≈ 1.56 µM) |
| Cc1ccccc1Nc1nc(-c2cccnc2)cs1 | 11.2 (≈ 41.9 µM) |
| CCSc1nc2sc3c(c2c(=O)[nH]1)CC(C)(C)OC3 | 3.1 (≈ 10.5 µM) |
| CCN(CC)CC(O)Cn1c(-c2ccccc2Cl)nc2ccccc21 (stereo unspecified) | > 53.7 |
| CN1CC(=O)N/C1=N\C(=O)Nc1ccc(O)cc1 | > 37.2 |
| O=C(NC(=S)Nc1ccccc1O)c1cccnc1 | > 41 |
| CSc1ccc(Cl)c(C(=O)OCC(=O)N2CCNC2=O)c1 | > 49.3 |
| O=C(Nc1cccnc1Cl)c1cc(-c2ccc(O)cc2)on1 | < 0.2 |
| O=C(Nc1ccc(Br)c(Br)c1)C1CCCO1 (stereo unspecified) | 38.8 (≈ 111 µM) |
| CCCOc1ccc(NC(=O)CCC(=O)NC(C)c2ccccc2)cc1 (stereo unspecified) | 0.5 (≈ 1.41 µM) |
| COc1ccc(C(=O)NCC(O)CN2CCOCC2)cc1[N+](=O)[O-] (stereo unspecified) | 38.9 (≈ 115 µM) |
| CC(=O)Nc1ccc(NC(=O)CCOc2ccccc2C)cc1 | 21.1 (≈ 67.5 µM) |
| CCC1CN(C(=O)NCc2ccc(F)cc2)c2ccccc2O1 (stereo unspecified) | 37.4 (≈ 119 µM) |
| Cc1ccc(Cl)cc1NS(=O)(=O)Cc1ccccc1 | 9 (≈ 30.4 µM) |
| Cc1cc(C)nc(Nc2nc3ccccc3s2)n1 | < 0.1 |

| Structure (SMILES) | solubility kinetic [µg/mL] |
| --- | --- |
| CCN1CCN(C(=O)C2COc3ccccc3O2)CC1 (stereo unspecified) | > 41.5 |
| COc1ccc([N+](=O)[O-])cc1NCC(=O)c1ccc(C)cc1 | 14.2 (≈ 47.3 µM) |
| COCCNc1oc(-c2ccccc2Cl)nc1S(=O)(=O)c1ccc(C)cc1 | 44.1 (≈ 108 µM) |
| O=C(Cn1c(=O)oc2ccccc21)NCCc1ccccc1 | 44 (≈ 148 µM) |
| COC(=O)CNC(=O)COC(=O)/C=C/c1ccc(F)cc1 | > 44.3 |
| CCN(CC)S(=O)(=O)c1ccc(N2CCOCC2)c(NC(=O)c2ccc(=O)[nH]c2)c1 | > 65.2 |
| Cc1ccc(-c2csc(NC(=O)CN3CCOCC3)n2)cc1 | > 47.6 |
| CCOC(=O)C1=Nc2ccccc2/C1=C\c1c(O)n(C)c(=O)n(C)c1=O | 46.5 (≈ 131 µM) |
| Cc1cc(C)c(C(=O)N(C)C2CCCN(Cc3ccccc3F)C2)o1 (stereo unspecified) | > 51.7 |
| COc1cccc(N/C=C/C(=O)c2ccc(OC)c(OC)c2)c1 | 2.3 (≈ 7.34 µM) |
| O=C(O)c1ccc2c(c1)C(=O)N(c1nccs1)C2=O | > 41.1 |
| O=C(C1CCCC1)N1CCN(S(=O)(=O)c2cccc(Cl)c2Cl)CC1 | 27.4 (≈ 70 µM) |
| O=C(/C=C/c1ccco1)NCCCN1CCOCC1 | > 39.6 |
| CNC(=O)Nc1ccc(C(O)(C(=O)OC)C(F)(F)F)cc1 (stereo unspecified) | > 45.9 |
| O=C(CCCc1ccccc1)Nc1ccccc1C(F)(F)F | 5.1 (≈ 16.6 µM) |
| Cc1cc(C(=O)COC(=O)C2CC2)c(C)n1-c1ccc(F)cc1 | 12.9 (≈ 40.9 µM) |
| O=C(O)C1C2CCC(O2)C1C(=O)Nc1ccc(Br)cc1F (stereo unspecified) | > 53.7 |
| Cc1cccc2c3c([nH]c12)CCNC3.Cl | > 33.4 |
| CCc1ccc(NC(=O)Cn2cnc3c(=O)n(C)c(=O)n(C)c32)cc1 | 18.6 (≈ 54.5 µM) |
| Cc1csc(NC(=O)c2ccc(COc3ccccc3)o2)n1 | 3.3 (≈ 10.5 µM) |
| Cc1nn(CC(=O)NCc2ccco2)c(C)c1[N+](=O)[O-] | > 41.7 |
| COc1ccccc1-c1cc(-c2ccccc2)nc(=O)[nH]1 | > 41.7 |
| CC(C)(C)Cc1nnc(NC(=O)c2ccco2)s1 | > 39.8 |
| CCn1cc(CN(C)S(=O)(=O)c2cccc([N+](=O)[O-])c2)cn1 | > 48.7 |
| CCOc1cccc(/C=C/c2ccc3cccc(O)c3n2)c1OC | < 0.7 |

| Structure (SMILES) | solubility kinetic [µg/mL] |
| --- | --- |
| O=C(NCC(c1ccc(F)cc1)N1CCOCC1)c1ccc(-c2ccccc2)cc1 (stereo unspecified) | 3.2 (≈ 7.91 µM) |
| O=S(=O)(c1ccc2ccccc2c1)N1CCOCC1 | 20.2 (≈ 72.8 µM) |
| Cc1ccnc(SCC(N)=O)n1 | > 27.5 |
| O=C(O)c1ccccc1C(=O)NCCc1ccc(Cl)cc1 | 43.3 (≈ 143 µM) |
| CSc1nc2nc3c(cc2c(=O)n1-c1ccc(C)cc1)COC(C)(C)C3 | 2.3 (≈ 6.26 µM) |
| O=C(NCc1ccc(F)cc1F)c1cc(COc2c(F)cccc2F)on1 | 1.5 (≈ 3.94 µM) |
| Cc1ccc(-c2nonc2NC(=O)c2ccco2)cc1 | > 40.4 |
| COC(=O)Cc1ccc(NC(=S)N2CCC(Cc3ccccc3)CC2)cc1 | 6.5 (≈ 17 µM) |
| CCCS(=O)(=O)N1CCCC(C(=O)Oc2ccc(Cl)cc2)C1 (stereo unspecified) | 1.5 (≈ 4.34 µM) |
| NS(=O)(=O)c1ccc(NC(=O)CN2CCCc3ccccc32)cc1 | 19.1 (≈ 55.3 µM) |
| O=S(=O)(Nc1ccccc1)c1cccc2nonc12 | > 41.3 |
| COc1ccc(C2(C(=O)NCCc3ccccc3)CCCC2)cc1 | 31.1 (≈ 96.2 µM) |
| CCNC(=O)NC1c2ccccc2CSc2ccccc21.O (stereo unspecified) | 8.8 |
| CC1(C)CC(=O)C(=CN2CCOCC2)C(=O)C1 | > 35.6 |
| Cc1cccc(NC(=O)CCN2CCN(C)CC2)c1.Cl | > 44.7 |
| O=C(COC(=O)C1CC2CCCC(C1)C2=O)Nc1ccccc1 (stereo unspecified) | 46.5 (≈ 147 µM) |
| Cc1c(Cl)cccc1NC(=S)NCc1ccco1 | 40.1 (≈ 143 µM) |
| Cc1cc(C)c(C(=O)Nn2c(C)nc3ccccc3c2=O)cc1C | > 48.2 |
| CC1CC(C)(C)NC(=S)N1CCCC(=O)NCc1ccccc1 (stereo unspecified) | > 50 |
| CCCn1c(SCC(=O)Nc2ccc(Cl)cc2F)nc(O)cc1=O | > 55.8 |
| O=C(Cc1ccc(Cl)c(Cl)c1)NC1CCCCCC1 | 3.2 (≈ 10.7 µM) |

From PubChem BioAssay AID1996
